Laboratory results: US20230382966A1, “NOVEL KLOTHO INTERACTION SITE IN THE C-TERMINUS OF FGF23” (INDIANA UNIVERSITY RESEARCH AND TECHNOLOGY CORPORATION, priority 2020, published 2023)
“Also recorded” adds a separate entry of the source. Bridges are numbered along the chain shown (N, C = ends). Roman numbers before positions name the chains, in order. Where no end group is shown, it is not given here.

Assays:
FGFR/KL-complex = target: T1, FGFR/KL-complex (Homo sapiens, UniProt Q9UEF7); assay: FGF23-antagonism measured by relative p-Erk levels in 293/KL cells; format: cell-based; settings: for IC50: p-Erk
T1 construct: expressed in transfected cells; host or cells: 293T HEK cells overexpressing human KL (293/KL)
T1 sequence (Q9UEF7 34-1012): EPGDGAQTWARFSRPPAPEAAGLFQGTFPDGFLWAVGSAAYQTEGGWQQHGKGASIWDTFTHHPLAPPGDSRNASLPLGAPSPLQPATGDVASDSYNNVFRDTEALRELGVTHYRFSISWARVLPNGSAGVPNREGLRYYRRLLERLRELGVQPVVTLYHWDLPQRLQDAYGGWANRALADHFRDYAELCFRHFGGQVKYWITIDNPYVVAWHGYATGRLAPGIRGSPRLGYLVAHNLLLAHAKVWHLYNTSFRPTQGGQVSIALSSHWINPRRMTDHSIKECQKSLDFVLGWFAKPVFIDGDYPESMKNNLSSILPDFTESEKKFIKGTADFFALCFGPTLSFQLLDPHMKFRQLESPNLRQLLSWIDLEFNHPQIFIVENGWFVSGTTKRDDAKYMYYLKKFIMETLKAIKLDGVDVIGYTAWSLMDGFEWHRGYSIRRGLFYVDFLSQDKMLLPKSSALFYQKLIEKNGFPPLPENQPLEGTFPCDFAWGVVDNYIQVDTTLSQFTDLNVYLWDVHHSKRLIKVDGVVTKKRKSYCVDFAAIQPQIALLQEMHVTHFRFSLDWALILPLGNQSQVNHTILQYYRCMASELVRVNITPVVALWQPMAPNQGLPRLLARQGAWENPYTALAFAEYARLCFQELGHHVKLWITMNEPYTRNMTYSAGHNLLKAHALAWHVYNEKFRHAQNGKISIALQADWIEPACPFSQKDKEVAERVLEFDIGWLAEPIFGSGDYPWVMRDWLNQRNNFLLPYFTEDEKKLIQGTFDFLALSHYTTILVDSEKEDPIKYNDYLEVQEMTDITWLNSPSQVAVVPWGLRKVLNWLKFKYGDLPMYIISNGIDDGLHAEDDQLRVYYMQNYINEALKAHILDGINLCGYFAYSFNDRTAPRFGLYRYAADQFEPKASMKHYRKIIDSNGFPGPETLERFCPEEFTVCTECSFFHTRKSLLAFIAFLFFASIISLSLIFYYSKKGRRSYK
From the text: FIGS. 1A-1F Structure activity analysis among the two KL-interacting peptides C26 and C28. FIG. 1A provides a schematic representation of FGF23 showing the Amino terminal FGF23 core (amino acids 25-179) and the C-terminal portion that comprises two Klotho interaction sites “C26” (amino acids 180-205) and “C28” (amino acids 212-239); FIGS. 1B-1F are graphs presenting FGF23-antagonism measured by the relative p-Erk levels in 293/KL cells with increasing doses of the peptide antagonist. (FIG. 1B) compares C26 and C28; FIG. 1C is a graph showing the effect of the substitutions from C28 sequence into the C26 sequence on the peptide activity, comparing peptides C26(●), 1(▪), 2( ? ), 3(▴), and 4(○); FIG. 1D is a graph showing the effect of the substitutions from C28 sequence in the C26 sequence on the peptide activity, C28(●), 5(▪), 6( ? ), and 7(▴); FIGS. 1E & 1F are graphs showing the activity of shortened FGF23 C-terminal peptide antagonist in vitro. For FIG. 1E peptides C26(●), 8(▪), 9( ? ) are compared; For FIG. 1F peptides 6(●), 10(▪), 11( ? ), and 12(▴).
FIGS. 4A & 4B provide data relating to mutation of the C-terminal FGF23 peptides to assess their KL-interaction site by study of FGF23-activity antagonism in 293/KL cells. FGF23 C-terminal peptides tested for their ability to block FGF23-signaling measured by relative p-Erk levels are shown in FIG. 4A for peptides C26 (●), C28(▪), C26A1(T ? , FGF23^180-205, A^188), C28A2(▴, FGF23^212-239, A^222); and in FIG. 4B for peptides C72(●, FGF23^180-251), C72A1(▪, FGF23^180-251, A^188), C72 A2 ( ? , FGF23^180-251, A^222), C72A1A2(▴, FGF23^180-251, A^188,222). […]

[1] = system: FGFR/KL-downstream targets Cyp24a1, Cyp27b1 and Egr1; assay: Mouse kidney gene expression after FGF23 protein analogs (quantitative real time PCR); format: in vivo; settings: WT mice, 0.5 mg/kg, 3 hours
Experimental: (§1) FIGS. 5A-5D provide data relating to the activities of FGF23-analogs containing one or two active KL-interaction sites by in vitro and in vivo methods. […] FIGS. 5B-5D are scatter plots presenting an in vivo assessment of FGF23-activity in mice. WT mice were treated with 0.5 mg/kg body weight with either FGF23, FGF23 A^188, FGF23 A^222, FGF23 A^188,222, or vehicle, n=5 or 10/group, and post 3-hours the gene expression changes were studied by quantitative real time PCR for target genes, FIG. 5B represents measurement of Cyp24a1, FIG. 5C represents measurement of Cyp27b1, and FIG. 5D represents measurement of Egr1. The data is presented as a scatter plot where each dot represents one animal, mean ±SEM. One-way ANOVA with Tukey's comparison was employed for statistical analyses where***P<0.001 vs. vehicle; #P<0.05, ##P<0.01, ###P<0.001 vs FGF23; and $$$P<0.001 vs FGF23 A^188,222 was calculated.
To test whether C28 as the second KL-interaction site can promote FGF23 in vivo activity, the single site FGF23-analogs were assessed for their ability to alter kidney gene expression in normal mice. Four proteins (FGF23, FGF23 A188, FGF23 A222 or FGF23 A188, 222 analogs) were each dosed to mice 0.5 mg/kg and 3 hours later quantitative real time PCR was employed to assess kidney mRNA expression of the FGFR/KL-downstream targets Cyp24a1, Cyp27b1 and early growth response protein 1 (Egr1). […] This is not surprising since the optimal treatment time for Egrl modulation is as early as 1 hour for FGF-signaling measurements. The magnitude in upregulation of gene expression for Cyp24a1 was the highest, with twenty-fold induction by native FGF23 treatment (FIG. 5B). […] Similarly, the Egrl induction is reduced for FGF23 A188 and FGF23 A222 analogs as compared to native FGF23 (P<0.05, FIG. 5D), but no difference is observed among the analogs and FGF23 for Cyp27b1 (FIG. 5C).

FGFR/KL complex = assay: FGF23-signaling activity (stimulation of Erk-phosphorylation) in 293/KL cells; format: cell-based, human
Experimental: as §1
Whether FGF23-based agonism can employ each of the two KL-interaction sites as witnessed in the C72 peptide antagonist was studied. To do so, a selective mutation at position Asp188 or Asp222 was made in the native FGF23. […] This is consistent with prior reports where C-terminal sequence deletion after residue 205 position had no apparent effect on cellular signaling (FIG. 5A, Table 3). […] Asp188 residue is purported to be singularly essential for KL-binding and FGF23 activity, and its importance was substantiated by the lack of antagonism when the C26 peptide was similarly mutated from Asp to Ala (FIG. 4A). […] To confirm that these observations were not resulting from unexpected changes in higher order structure that was not apparent in biosynthesis, purification, or formulation of the mutant proteins their biophysical integrity were directly assessed by thermal denaturation.
The N-terminal domain of the endocrine FGFs primarily determines the FGFR-activation while the C-terminal sequence guides the co-receptor specificity with a Klotho co-receptor, KL or KLB. The receptor complex specificity among the endocrine FGF-proteins can be modulated by altering their C-terminal domains. Consequently, two FGF21-23 chimeric protein analogs were prepared containing the FGF21 N-terminal core with its C-terminal KLB-binding peptide replaced with an FGF23 C-terminal peptide sequence constituted by C72 (FGF21-23 C72) or C26 (FGF21-23 C26) (Table 3).

[2] = Table 2, block of FGF23-signaling
[3] = Table 1, block of FGF23-signaling

Work on DPLGVVRPRARM [Peptide 12] yielded an IC50 (FGFR/KL-complex; [2]) of 70.9 ± 29.5 nM.

For “I: SAEDNSPMASDPLGVVRGGRVNTHAGGTGPEGC / II: SAEDNSPMASDPLGVVRGGRVNTHAGGTGPEGC (disulfide I:33-II:33) [Peptide 18]”, the “enhancement of FGF23-antagonistic potency of dimer compared to corresponding monomers” value (from here on “enhancement … compared to corresponding monomers”) (FGFR/KL-complex; fold) was “approximately twenty to fifty-fold”.

“SAEDDSERDPLNVLKPRARMTPAPASCSQELPSAEDNSPMASAPLGVVRGGRVNTHAGGTGPEGCRPFAKFI [C72 A2, FGF23^180-251, A^222]” was tested, and the IC50 (FGFR/KL-complex; [3]) was 33.1 ± 15.8 nM and the “reduction in inhibitory potency relative to C72” value (FGFR/KL-complex; fold) was “more than twenty-fold”.

With DPLNVLKPRARM [Peptide 9] the IC50 (FGFR/KL-complex; [2]) was 542 ± 282 nM.

For “I: SAEDNSPMASDPLGVVRGGRVNTHAGGTGPEGC / II: SAEDDSERDPLNVLKPRARMTPAPASGPEGC (disulfide I:33-II:31) [Peptide 19]”, the “FGF23-antagonist activity (in words)” value (FGFR/KL-complex) was “indistinguishable from the activity of the two homodimers” and the “enhancement … compared to corresponding monomers” value (FGFR/KL-complex; fold) was “approximately twenty to fifty-fold”.

For “I: SAEDNSPMASAPLGVVRPRARMTHAGGTGPEGC / II: SAEDNSPMASDPLGVVRPRARMTHAGGTGPEGC (disulfide I:33-II:33) [Peptide 22]”, the “FGF23-antagonist activity (in words)” value (FGFR/KL-complex) was “reduced in potency relative to C72 and peptide 20”.

In the case of “SAEDDSERAPLNVLKPRARMTPAPASCSQELPSAEDNSPMASAPLGVVRGGRVNTHAGGTGPEGCRPFAKFI [C72 A1A2, FGF23^180-251, A^188,222]”, the “FGF23-antagonist activity (in words)” value (FGFR/KL-complex) is reported as “complete loss of activity”.

ERDPLNVLKPRARM [Peptide 8] was tested, and the IC50 (FGFR/KL-complex; [2]) was 97 ± 30.3 nM.

In the case of “I: SAEDNSPMASDPLGVVRPRARMTHAGGTGPEGC / II: SAEDNSPMASDPLGVVRPRARMTHAGGTGPEGC (disulfide I:33-II:33) [Peptide 20]”, the “FGF23-antagonist activity (in words)” value (FGFR/KL-complex) is reported as “equal to that of C72; also recorded: no greater potency than C72”.

Work on PMASDPLGVVRPRARM [Peptide 10] yielded an IC50 (FGFR/KL-complex; [2]) of 3.8 ± 0.9 nM.

“I: SAEDDSERDPLNVLKPRARMTPAPASGPEGC / II: SAEDDSERDPLNVLKPRARMTPAPASGPEGC (disulfide I:31-II:31) [Peptide 17]” was tested, and the “enhancement … compared to corresponding monomers” value (FGFR/KL-complex; fold) was “approximately twenty to fifty-fold”.

In the case of “SAEDDSERAPLNVLKPRARMTPAPASCSQELPSAEDNSPMASDPLGVVRGGRVNTHAGGTGPEGCRPFAKFI [C72 A1, FGF23^180-251, A^188]”, the IC50 (FGFR/KL-complex; [3]) is reported as 24.5 ± 11.5 nM and the “reduction in inhibitory potency relative to C72” value (FGFR/KL-complex; fold) is reported as “more than twenty-fold”.

Work on ASDPLGVVRPRARM [Peptide 11] yielded an IC50 (FGFR/KL-complex; [2]) of 17.1 ± 0.6 nM.

For “SAEDNSPMASDPLGVVRGGRVNTHAGGTGPEGCRPFAKFI [C40]”, the “enhancement of antagonistic potency relative to C28” value (FGFR/KL-complex; fold) was “two to three-fold”.

B1: FGF23 A^222: FGF23^25-240, A^222 (protein)
chain: YPNASPLLGSSWGGLIHLYTATARNSYHLQIHKNGHVDGAPHQTIYSALMIRSEDAGFVVITGVMSRRYLCMDFRGNIFGSHYFDPENCRFQHQTLENGYDVYHSPQYHFLVSLGRAKRAFLPGMNPPPYSQFLSRRNEIPLIHFNTPIPRRHTRSAEDDSERDPLNVLKPRARMTPAPASCSQELPSAEDNSPMASAPLGVVRGGRVNTHAGGTG
In the case of B1, the “kidney Cyp24a1 mRNA expression vs vehicle” value [1] is reported as “significant elevation”, the “kidney Cyp27b1 mRNA expression vs vehicle” value [1] is reported as “coordinate suppression” and the “Egr1 induction as compared to native FGF23” value ([1]; kidney) is reported as “reduced”. For the same molecule, the “magnitude of Cyp24a1 effect as compared to native FGF23” value ([1]; kidney) was “fractionally reduced”, the “FGF23-type agonism / FGFR/KL activation (in words)” value (FGFR/KL complex) was “comparable potency to native protein” and the EC50 (FGFR/KL complex; Table 3, p-Erk) was 0.29 ± 0.12 nM.

B2: FGF23^180-251: SAEDD SER-- DPLNV LKPRA RMTPA PAS CSQELP SAEDNSPMASDPLGVVRGGRVNTHAGGT GPEGC RPFAKFI (peptide)
chain: SAEDDSERDPLNVLKPRARMTPAPASCSQELPSAEDNSPMASDPLGVVRGGRVNTHAGGTGPEGCRPFAKFI
With B2 the IC50 (FGFR/KL-complex; [3]) was 1.2 nM, the “enhancement of antagonistic potency relative to C26” value (FGFR/KL-complex; fold) was “seventy” and the “enhancement of antagonistic potency relative to C28” value (FGFR/KL-complex; fold) was “thirty-fold”.

B3: FGF21: FGF21^29-209 (protein)
chain: HPIPDSSPLLQFGGQVRQRYLYTDDAQQTEAHLEIREDGTVGGAADQSPESLLQLKALKPGVIQILGVKTSRFLCQRPDGALYGSLHFDPEACSFRELLLEDGYNVYQSEAHGLPLHLPGNKSPHRDPAPRGPARFLPLPGLPPALPEPPGILAPQPPDVGSSDPLSMVGPSQGRSPSYAS
B3 was tested, and the “FGF23-type agonism / FGFR/KL activation (in words)” value (FGFR/KL complex) was “unable to activate”.
